According to US10845369B2, “Sampling devices and methods of use” (3M INNOVATIVE PROPERTIES COMPANY, priority 2008, dated 2020):
Values belong to the compound of their own block, whether it stands above or below them.

Assays:
[1] = Moisture retention by premoistened swab devices during extended storage; type: physicochemical
Description: Rapid Cleanliness Test swab sampling devices, sold under the trade name CLEAN-TRACE, were obtained from 3M Health Care (Bridgend, UK). Sterile Dacron swabs were obtained from Puritan Medical Products Company (Guilford, Me.). Foil pouches (160 mm (w)×270 mm (1) heat-sealable PET/foil/LDPE laminate pouches) were obtained from Westfield Medical Ltd. (Bath, UK). The analytical balance (model GR-300) was obtained from A&D Mercury Pty., (Thebarton, South Australia)
The swabs were removed from the CLEAN-TRACE devices and replaced with dry, sterile Dacron swabs. Half of the replacement swabs were dipped in solution I (see Table 1) for 20 seconds, tapped on the edge of a sterilin container 5 times (to remove excess swabbing solution), and the swabs were weighed before each CLEAN-TRACE tube was reassembled with a moistened swab. The remaining replacement swabs were similarly moistened with solution II (Table 1), weighed, and reassembled in the tubes.
The initial weight (T0) of each moistened swab was recorded. The reassembled tubes were placed into individual plastic pouches, which were heat-sealed. Care was taken to minimize the amount of air sealed in each pouch. The pouches were divided into two groups. One group was placed into a refrigerator which was held at a temperature of 4±3 degrees Celsius. The other group was placed into a chamber which was held at 25±1 degree Celsius. Sets of ten replicate tubes were removed from each chamber at each specified time point, the tubes were removed from the pouch and weighed, and the weights were recorded.
(§1) Swabs were prepared as described in Example 1. The swabs were tested for moisture retention as described in Example 1, for compatibility with luciferase enzyme as described in Example 3, and for perdurable detectable residue as described in Example 4. In these experiments, the swab effectiveness parameter was not recorded. All concentrations are listed as percent weight/volume. Solution I-moistened swabs were used as controls for all comparisons. Inhibition of luciferase activity was scored as significant when the measurement from the test swab was <90% of the activity observed with the control swabs. The inhibition was scored as very significant when the measurement from the test swab was <50% of the activity observed with the control swabs.

luciferase enzyme = test: ATP detection activity test in CLEAN-TRACE devices (compatibility with luciferase enzyme); type: biochemical
Description: The swabs were removed from the CLEAN-TRACE devices and replaced with dry, sterile Dacron swabs. One-third of the replacement swabs were dipped in solution I (see Table 1) for 20 seconds, tapped on the edge of a sterilin container 5 times (to remove excess swabbing solution), and the CLEAN-TRACE tube was reassembled with the moistened swab. One-third of the remaining replacement swabs were similarly moistened with solution II (Table 1) containing 2% (w/v) 1,2-propanediol and reassembled in the tubes. The remaining one-third were similarly moistened with solution II (Table 1) containing 5% (w/v) 1,2-propanediol and reassembled in the tubes. The reassembled devices were sealed in pouches containing 10 devices per pouch and stored at 4 degrees Celsius for 24 hours.
An ATP stock solution was prepared by reconstituting freeze-dried ATP with 500 microliters of autoclaved R.O. water to a working strength of […]. A 10-microliter aliquot of the ATP working solution was pipetted onto the middle of the bud of the test devices prepared for this Example (see above).
Individual devices were activated by plunging the handle of the swab into the test devices, thereby breaking the barrier and exposing the swab bud to the reagent solution containing luciferin. The tubes were then shaken for 20 seconds at speed 7 on the wrist action shaker (Stuart Scientific, Staffordshire, England) and the device was read device in a UNI-LITE luminometer (3M Healthcare, Bridgend, U.K.). Twenty replicate swabs were tested at each time point for each swab solution. Background readings (negative controls) were run at each time point by activating devices, containing one of the Solutions (I, IIa, or IIb), which was not spiked with the ATP solution. Ten devices were used for each negative control condition at each time point.
as §1

[2] = 1% w/v in Solution II, vs Solution I control
[3] = 5% w/v in Solution II, vs Solution I control
[4] = 5% w/v, vs Solution I control swabs

Moisture retention [1, 2]: No significant improvement with 1%.
Moisture retention [1, 3]: Slight improvement with 5%.
Moisture retention ([1]; ≥10% (10, 20, 30, 40, 50, 100% tested)): Significant improvement with ≥10%
Compatibility with luciferase enzyme (luciferase enzyme; 1% w/v, vs Solution I control swabs): No inhibition
Compatibility with luciferase enzyme (luciferase enzyme; [4]): No inhibition
Structure (SMILES): OC[C@@H](O)[C@@H](O)[C@H](O)[C@@H](O)CO [Sorbitol]

Structure (SMILES): CC(O)CO (centres unmarked) [Propylene glycol (1,2-propanediol), 1,2-propanediol]
Moisture retention [1, 2]: No significant improvement
Moisture retention ([1]; ≥5% (5, 6, 8% tested)): Significant improvement ≥5%
Moisture retention ([1]; ≥5% (10. 20, 25, 50% tested)): Significant improvement ≥5%
Compatibility with luciferase enzyme (luciferase enzyme; 1, 2, 3, 4% tested): No inhibition
Compatibility with luciferase enzyme (luciferase enzyme; 5, 6, 8% tested): No inhibition

Compatibility with luciferase enzyme (luciferase enzyme; up to 5% (1, 5% tested)): No inhibition up to 5%
Structure (SMILES): OCC(O)CO [Glycerol]
Moisture retention ([1]; 1, 5% tested): Comparable to sorbitol and propylene glycol
Moisture retention ([1]; 10, 20, 50% tested): Comparable to sorbitol and propylene glycol

Structure (SMILES): CC(O)C(=O)[O-].[Na+] (centres unmarked) [Sodium lactate]
Moisture retention ([1]; 5 or 10% soln.): No significant improvement with 5 or 10%
Compatibility with luciferase enzyme (luciferase enzyme; [4]): Significant inhibition

Moisture retention [1, 3]: 5% solution was comparable to PG
Compatibility with luciferase enzyme (luciferase enzyme; [4]): Some inhibition at 5%
Structure (SMILES): CC(=O)NCCO [Incromectant (N-Acetylethanolamine), N-Acetylethanolamine]
